Structures can show the parent of a compound that is named as a salt. Marks after values point to notes of the source that are not given here.
Tests used:
[1] = system: experimental murine fibrosarcoma (RIF-1 cells); assay: Regrowth delay of the treated transplantable murine fibrosarcoma; assay type: in vivo, murine; female C3H mice; conditions: for Regrowth Delay: time to 4 times initial treatment volume (150 mm^3), Mean ± S.E.
Protocol: times their initial treatment volume (150 mm^3). Increasing values
indicate enhanced therapeutic effect.
When the tumors reached a volume of 150 mm^3, the mice were assigned randomly to the following groups (4-6 mice per group): (1) untreated controls; (2) 5-FU (100 mg/kg), i.p., 0.1 ml/mouse; (3) 5-FU (100 mg/kg), i.t., 0.1 ml/tumor; (4) 5-FU-BC (100 mg 5-FU/kg dispersed in BC (18 mg/ml)), i.t., 0.1 ml/tumor; 5-FU-EPI-BC (100 mg 5-FU/kg) 5 mg EPI/kg dispersed in BC (18 mg/ml), i.t., 0.1 ml/tumor.
In the next study doxorubicin-HCl (ADM) (Adriamycin) was studied using the above-described protocol. The adriamycin in distilled water (4.45 mg/ml) was mixed with 36 mg/ml bovine collagen (BC) 1:1 to yield a composition ratio of 2.25 mg adriamycin:18 mg BC/ml.
^2 Tumor Regrowth Delay (RD). Time (days) required for tumors to grow
to 3 × its original treatment volume (~150 mm^3).
Increasing RD indicate increased tumor cell killing.

[2] = system: uninjected contralateral fibrosarcoma (RIF-1 cells); assay: Regrowth delay of the uninjected contralateral fibrosarcoma; assay type: in vivo, murine; female C3H mice; conditions: for Regrowth Delay, uninjected contra: time to 4 times initial volume, Mean ± S.E.
Protocol: A transplantable experimental murine fibrosarcoma (2×10^5 RIF-1 cells) was grown intradermally in the flank of 5 month old female C3H mice (Bantin and Kingman, Fremont, Calif.). Cis-diamine dichloroplatinum (II) (cis-Pt) (Sigma Chemical Co., St. Louis, Mo.) was dissolved in sterile saline at concentrations of 0.8, 1.6 and 3.2 mg/ml and mixed 1:1 with bovine collagen (BC) (36 mg/ml) in PBS 20 mM phosphate, 140 mM NaCl (Collagen Corp., Palo Alto, Calif.). Doses of 2, 4 and 8 mg/kg host of cis-Pt were delivered in 0.1 ml of the collagenous drug mixture to the center of the tumor growing in the flank (intratumorally, i.t.), and the tumor measured. The growth of a second uninjected tumor on the opposing flank of the same mouse was also measured. In addition, cis-Pt dissolved in PBS without collagen was administered intraperitoneally (i.p.) to other tumor-bearing mice (4 tumors/group) to monitor the effects on tumor growth of the drug without collagen. Furthermore, the effect of bovine collagen on tumor growth was also studied by injection of 0.1 ml of collagen, (18 mg/ml) into the experimental fibrosarcomas, as previously described. The growth of the tumors was monitored three times per week by caliper measurements of three perpendicular diameters of the tumor and calculating tumor volume from the formula
*Regrowth Delay determined as the time (days) for tumors to grow to four
times their initial treatment volume (150 mm^3).
(§1) In the next study 5-fluorouracil (5-FU) (Sigma Chem. Co., St. Louis, Mo.) with and without epinephrine (Sigma) suspended in saline by sonication (60 mg/ml) and mixed 1:1 with bovine collagen (BC) (Collagen Corp., Palo Alto, Calif.) (36 mg/ml) or normal saline. The subjects were 25 gm 12 week-old female C3H/He mice (Bantin and Kingman, Fremont, Calif.) bearing the transplatable experimental murine fibrosarcoma propagated intradermally as previously described.
(§2) The adriamycin in distilled water (4.45 mg/ml) was mixed with 36 mg/ml bovine collagen (BC) 1:1 to yield a composition ratio of 2.25 mg adriamycin:18 mg BC/ml.
^3 Contralateral Tumor RD (CRD). Time (days) required for untreated
contralateral tumors to grow to 3× its original treatment volume
(~150 mm^3). Decreasing RD indicate enhanced regionalization of
drug injected when compared to RD.
(§3) In the next study vincristine (VCR) was dissolved in saline (0.6 mg/ml) by sonication and mixed 1:1 with bovine collagen (36 mg/ml). Otherwise, the procedure was the same.
In the next study a combination of bleomycin sulfate (Sigma Chemical Co., St. Louis, Mo.) (15 mg/kg) and epinephrine (5 mg/kg) employed in a bovine collagen composition were evaluated for antitumor effect in the transplantable experimental murine fibrosarcoma model previously described. […]

white blood cells = assay: White blood cell count in tumor-bearing mice
Protocol: as §1
(§4) On day four post-treatment, white blood cells (wbc) were counted by sampling blood from the tail, dilution in Turk's solution and counting in a hemocytometer. On day eight post-treatment, skin reaction is overlying tissue was graded for untoward response.
as §2
^4 White Blood Cells measured on Day 4 post injection by sampling fro
the tail of treatment mice.
as §3
In the next study a combination of bleomycin sulfate (Sigma Chemical Co., St. Louis, Mo.) (15 mg/kg) and epinephrine (5 mg/kg) employed in a bovine collagen composition were evaluated for antitumor effect in the transplantable experimental murine fibrosarcoma model previously described.
(§5) In another experiment the curative potential of drug matrix formulations was evaluated in the experimental murine fibrosarcoma model. Briefly, female C3H/He mice bearing a single experimental tumor produced as previously described were treated at weekly intervals with formulations containing 5-fluorouracil (50 mg/kg); bovine collagen BC (Collagen Corp., Palo Alto, Calif.); epinephrine (Sigma Chemical Co., St. Louis, Mo.); and PBS. WBC's were determined on Day 4 following each treatment cycle and skin reaction on […] after each treatment cycle. Treatment was discontinued for all grops when 3 of 4 experiment groups reach 4×initial tumor volume. When tumors reached a volume of 150 mm^3 the mice were randomly assigned to the following groups:
(§6) 2. 5-FU-PBS i.p.; 5-FU (23 mg/ml) was combined 1:1 with PBS; 0.1 ml injected/mouse i.p.
(§7) 3. 5-FU-PBS i.t.; 5-FU (23 mg/ml) was combined 1:1 with PBS; 0.1 ml injected/tumor i.t.
(§8) 4. 5-FU-BC i.t.; 5-FU (23 mg/ml) was combined 1:1 with bovine collagen (36 mg/ml); 0.1 ml injected i.t.
(§9) In another experiment the influence of matrix composition on antitumor activity of 5-fluorouracil (100 mg/kg) was evaluated in the experimental murine fibrosarcoma model previously described. 5-FU (Sigma Chemical Co., St. Louis, Mo.) was combined as described below with bovine collagen BC (Collagen Corp., Palo Alto, Calif.); bovin fibronogen (95% clottable, Sigma), bovine thrombin (2000NIH units/mg, Sigma) and Ringer's Solution For Injection (RFI, Abbott Labs., North Chicago, Ill.). When tumors reached a volume of 150 mm^3 the mice (Bantin and Kingman, Fremont, Calif.) were assigned randomly to the following groups, (3-4 mice/group):
(§10) 3. 5-FU-Fibrinogen: 5-FU (36 mg/ml) combined 1:1 with the fibrinogen preparation described in 2 above, 0.1 ml i.t.
(§11) 4. 5-FU-BC-Fibrinogen: 5-FU (36 mg/ml) combined 1:1 with a fibrinogen-BC preparation consisting of fibrinogen (30 mg/ml); BC (36 mg/ml) dispersed in RFI containing 1 NIH unit of thrombin activity/ml, 0.1 ml i.t.

skin overlying the tumor = assay: Skin reaction of the skin overlying the tumor
Protocol: as §4
(§12) The skin reaction is scored as follows: […]
as §12, §5, §9, §10, §11
In the next experiment 5-fluorouracil-matrix implant in combination with X-rays was evaluated. Single RIF-1 tumors were grown on the back of female C3H mice (12-16 weeks) (Bantin and Kingman, Fremont, Calif.) as previously described. When the tumors reached volumes of 150 mm^3, they were divided into the following groups, (4-6 mice/group):
(§13) Tumor bearing mice were irradiated in lead jigs exposing only the tumor and overlying skin with a 250 kVp X-ray machine at a dose rate of 120 rad/min. The tumors of the treated and untreated mice were measured three times per week and assayed for regrowth delay and skin reactions as previously described.

[3] = system: experimental murine fibrosarcoma; assay: Tumor regrowth delay on weekly treatment (curative potential); assay type: in vivo, murine; female C3H/He mice
Protocol: as §5, §6, §7, §8

RIF-1 tumor [4] = assay: RIF-1 tumor regrowth delay, 5-fluorouracil-matrix implant in combination with X-rays; assay type: in vivo, female C3H mice; conditions: 5-FU 75 mg/Kg, i.p.
Protocol: In the next experiment 5-fluorouracil-matrix implant in combination with X-rays was evaluated. […] When the tumors reached volumes of 150 mm^3, they were divided into the following groups, (4-6 mice/group):
2. X-rays (1000 rad.) alone
3. Collagen-matrix (CM) i.t. 5 min. before X-rays
4. 5-Fluorouracil (5-FU) (75 mg/Kg) i.p.
6. 5-FU i.p. 5 min before X-rays
as §13

[5] = Acute animal toxicity / survival after injection; conditions: 15 mg/kg
Protocol: as §1, §2

RIF-1 tumor [6] = assay: RIF-1 tumor regrowth delay, cis-DDP-matrix implant in combination with hyperthermia; assay type: in vivo, female C3H mice; conditions: cis-DDP 6 mg/Kg, i.p.
Protocol: In the next study cis-DDP-matrix (DDP=cis-Pt) implant in combination with hyperthermia was evaluated.
2. Hyperthermia (43° C., 30 min) alone
3. Hyperthermia+collagen-matrix (CM)+epinephrine (epi) (2 mg/Kg)
4. cis-DDP (6 mg/Kg) i.p.
6. cis-DDP (i.p.) 30 min before hyperthermia
7. cis-DDP-CM-epi (i.t.) 30 min before hyperthermia.
The tumor bearing mice were heated in a precision water bath with 30 gauge thermistor thermometry (±0.2° C.).

[7] = 5-FU 100 mg/kg, i.p., mean ± S.E.
[8] = 5-FU 100 mg/kg, i.t. (± EPI 5 mg/kg), mean ± S.E.
[9] = 5-FU 50 mg/kg on Days 0, 8 and 16, i.p.
[10] = 5-FU 50 mg/kg on Days 0, 8 and 16, i.t. (± Epinephrine 5 mg/kg)
[11] = BLM 15 mg/kg, i.p., mean ± S.E.
[12] = BLM 15 mg/kg, i.t. (± EPI 5 mg/kg), mean ± S.E.

Molecule: O=c1[nH]cc(F)c(=O)[nH]1 [5-FU, 5-fluorouracil]
- Tumor Regrowth Delay [1, 7]: 13.1 ± 1.4 days
- Tumor Regrowth Delay [1, 8]: 14.5 ± 0.9 days
- Untreated Contralateral Regrowth Delay [2, 7]: 13.1 ± 1.4 days
- Untreated Contralateral Regrowth Delay [2, 8]: 11.1 ± 0.6 days
- WBC D-12 (white blood cells; [9]): 109 ± 28
- WBC D-12 (white blood cells; [10]): 107 ± 25
- White Blood Cells/mm^3 (white blood cells; 5-FU 100 mg/kg, i.p., day four post-treatment): 4.5 ± 0.6 Cells/mm^3 (× 10^3)
- White Blood Cells/mm^3 (white blood cells; 5-FU 100 mg/kg, i.t. (± EPI 5 mg/kg), day four post-treatment): 3.5 ± 0.5 Cells/mm^3 (× 10^3)
- Skin Reaction D-8 (skin overlying the tumor; [9]): 1.2 ± 1.1
- Skin Reaction D-8 (skin overlying the tumor; [10]): 1.0 ± 0.6
- Skin Reaction (skin overlying the tumor; 5-FU 75 mg/Kg, i.p. + X-rays (1000 rad), scored as previously described (0-3)): 2
- Skin Reaction (skin overlying the tumor; 5-FU 75 mg/Kg, i.p., no X-rays, scored as previously described (0-3)): 2
- Skin Reaction (skin overlying the tumor; 5-FU 100 mg/kg, i.p., Day 8, 0 = no effect, 1 = superficial inflammation, 2 = scab, 3 = ulcer): 0.7 ± 0.4
- Skin Reaction (skin overlying the tumor; 5-FU 100 mg/kg, i.t. (± EPI 5 mg/kg), Day 8, 0 = no effect, 1 = superficial inflammation, 2 = scab, 3 = ulcer): 0
- Tumor Regrowth 4 × [3, 9]: 10.3 ± 1.3 days
- Tumor Regrowth 4 × [3, 10]: 14.9 ± 3.8 days
- 2× Tumor Regrowth Delay (RIF-1 tumor [4]; 5 min before X-rays (1000 rad)): 12.6 ± 2.8 days
- 2× Tumor Regrowth Delay (RIF-1 tumor [4]; no X-rays): 8.5 ± 1.1 days

Molecule: COc1cccc2c1C(=O)c1c(O)c3c(c(O)c1C2=O)C[C@@](O)(C(=O)CO)C[C@@H]3O[C@H]1C[C@H](N)[C@H](O)[C@H](C)O1 [Free ADM, doxorubicin-HCl]
- Tumor Regrowth Delay, Treated ([1]; ADM 15 mg/kg, i.t., time to 3 × original treatment volume (~150 mm^3)): 13.7 ± 1.7 days
- Tumor Regrowth Delay, Contralateral ([2]; ADM 15 mg/kg, i.t., untreated contralateral tumor, time to 3× original treatment volume (~150 mm^3)): 8.3 ± 0.75 days
- White Blood Cells/mm^3 (white blood cells; ADM 15 mg/kg, i.t., Day 4 post injection): 4.1 ± 0.69 Cells/mm^3 (× 10^3)
- Skin Reaction (skin overlying the tumor; ADM 15 mg/kg, i.p., Day 8 post injection, 0 = no effect, 1 = superficial inflammation, 2 = scab, 3 = ulcer): 1.5 ± 0.5
- Skin Reaction (skin overlying the tumor; ADM 15 mg/kg, i.t., Day 8 post injection, 0 = no effect, 1 = superficial inflammation, 2 = scab, 3 = ulcer): 2.0
- toxicity of intratumoral injection ([5]; intratumoral injection): non-toxic
- survival ([5]; mouse, in vivo): 100%
- mortality ([5]; mouse, in vivo, ip): 75%
- survival ([5]; mouse, in vivo, ip): 25%

Molecule: CC[C@]1(O)C[C@H]2CN(CCc3c([nH]c4ccccc34)[C@@](C(=O)OC)(c3cc4c(cc3OC)N(C=O)[C@H]3[C@@](O)(C(=O)OC)[C@H](OC(C)=O)[C@]5(CC)C=CCN6CC[C@]43[C@@H]65)C2)C1 [VCR, vincristine]
- Tumor Regrowth Delay ([1]; VCR 2 mg/kg, i.p.): 10.6 ± 2.0 days
- Untreated Contralateral Regrowth Delay ([2]; VCR 2 mg/kg, i.p.): 10.6 ± 2.0 days
- White Blood Cells/mm^3 (white blood cells; VCR 2 mg/kg, i.p.): 7.4 ± 1.3 Cells/mm^3 (× 10^3)
- Skin Reaction (skin overlying the tumor; VCR 2 mg/kg, i.p., scored as in the preceding studies (0-3)): 0.6 ± 0.4

Molecule: N.N.[Cl][Pt][Cl] [cis-Pt, Cis-diamine dichloroplatinum (II)]
- Regrowth Delay ([1]; i.p., 2 mg/kg cis-Pt): 7.2 ± 0.1 days
- Regrowth Delay ([1]; i.p., 4 mg/kg cis-Pt): 9.1 ± 0.7 days
- Regrowth Delay ([1]; i.p., 8 mg/kg cis-Pt): 9.9 ± 1.0 days
- Regrowth Delay ([1]; i.t., 2 mg/kg cis-Pt, injected tumor): 9.5 ± 0.5 days
- Regrowth Delay ([1]; i.t., 4 mg/kg cis-Pt, injected tumor): 10.3 ± 0.7 days
- Regrowth Delay ([1]; i.t., 8 mg/kg cis-Pt, injected tumor): 11.5 ± 0.04 days
- Regrowth Delay, uninjected contra ([2]; opposing tumor injected i.t. with 2 mg/kg cis-Pt): 9.3 ± 1.2 days
- Regrowth Delay, uninjected contra ([2]; opposing tumor injected i.t. with 4 mg/kg cis-Pt): 8.9 ± 0.7 days
- Regrowth Delay, uninjected contra ([2]; opposing tumor injected i.t. with 8 mg/kg cis-Pt): 9.9 ± 0.9 days
- Tumor Regrowth Delay (2×) (RIF-1 tumor [6]; 30 min before hyperthermia (43° C., 30 min)): 8.9 ± 0.8 days
- Tumor Regrowth Delay (2×) (RIF-1 tumor [6]; no hyperthermia): 6.5 ± 1.5 days

Molecule: bleomycin sulfate [BLM]
- Tumor Regrowth Delay [1, 11]: 7.5 ± 0.9 days
- Tumor Regrowth Delay [1, 12]: 8.9 ± 0.6 days
- Untreated Contralateral Regrowth Delay [2, 11]: 7.5 ± 0.9 days
- Untreated Contralateral Regrowth Delay [2, 12]: 7.0 ± 0.7 days
